Reference: article PMC4501006, “Preliminary Characterization and In Vivo Studies of Structurally Identical ^18F- and ^125I-Labeled Benzyloxybenzenes for PET/SPECT Imaging of β-Amyloid Plaques” (Scientific Reports, 2015)

How the values were obtained:
[1] = Partition coefficient determination (log D); type: physicochemical
Experimental: An ideal Aβ imaging probe would combine a high binding affinity to Aβ plaques and excellent pharmacokinetics with high initial brain uptake and rapid washout from normal brain regions. Thus, the partition coefficients of these four radiolabeled ligands were determined to estimate their ability to penetrate the BBB.

[2] = In vivo metabolism (biostability), HPLC analysis of organ samples; conditions: ICR mice, i.v.
Experimental: All four radioactive ligands degraded to two corresponding polar radioactive products with shorter retention times. […] The good in vivo biostability of these compounds enhances their potential for SPECT mapping of the brain. […] In the plasma, all four ligands were rapidly converted to polar metabolites, leaving only approximately 10% of the parent tracers at 60 min. […] In contrast, the breakdown of [^125I]7a and [^125I]12a was so rapid that almost negligible amounts of parent tracers remained at 30 min (8.8% and 6.3%, respectively). The polar and hydrophilic metabolites metabolized by the liver could be absorbed by the intestine and excreted through the urine, in accordance with the biodistribution results. The rapid metabolism in the liver may be another reason for the faster clearance of these compounds from the normal brain. For structurally identical molecules labeled with radioactive isotopes at different positions, the in vivo metabolic pathways were expected to be the same. However, as only radioactive products can be detected with PET/SPECT scanners, different pharmacokinetics of the radioactive components could lead to different imaging results. […] The dual radiolabeled identical benzyloxybenzene derivatives in this study were expected to undergo the same metabolic reactions, generating different radioactive metabolites. Differences in the biochemical characteristics of the radiometabolites including absorption, distribution, metabolism and excretion are responsible for the discrepancy in the pharmacokinetics of the radioactivity.

Row | logD [1] | Percentage of Parent tracer, Brain ([2]; post-injection time 2 min) [%] | Percentage of Parent tracer, Feces ([2]; post-injection time 2 min) [%] | Percentage of Parent tracer, Liver ([2]; post-injection time 2 min) [%] | Percentage of Parent tracer, Plasma ([2]; post-injection time 2 min) [%] | Percentage of Parent tracer, Urine ([2]; post-injection time 2 min) [%] | Percentage of Parent tracer, Brain ([2]; post-injection time 10 min) [%] | Percentage of Parent tracer, Feces ([2]; post-injection time 10 min) [%] | Percentage of Parent tracer, Liver ([2]; post-injection time 10 min) [%] | Percentage of Parent tracer, Plasma ([2]; post-injection time 10 min) [%] | Percentage of Parent tracer, Urine ([2]; post-injection time 10 min) [%] | Percentage of Parent tracer, Brain ([2]; post-injection time 30 min) [%] | Percentage of Parent tracer, Feces ([2]; post-injection time 30 min) [%] | Percentage of Parent tracer, Liver ([2]; post-injection time 30 min) [%] | Percentage of Parent tracer, Plasma ([2]; post-injection time 30 min) [%] | Percentage of Parent tracer, Urine ([2]; post-injection time 30 min) [%] | Percentage of Parent tracer, Brain ([2]; post-injection time 60 min) [%] | Percentage of Parent tracer, Feces ([2]; post-injection time 60 min) [%] | Percentage of Parent tracer, Liver ([2]; post-injection time 60 min) [%] | Percentage of Parent tracer, Plasma ([2]; post-injection time 60 min) [%] | Compound | other results
1 | 3.88 ± 0.17 | 84.7 | 53.6 | 79.5 | 43.1 | 0.0 | 69.8 | 18.8 | 62.6 | 21.6 | 0.0 | 68.9 | 10.5 | 48.7 | 21.8 | 0.0 | 34.0 | 7.3 | 23.4 | 7.2 | [18F]CCOc1ccc(OCc2ccc(I)cc2)cc1 [[^18F]7a] | Percentage of Parent tracer, Urine ([2]; post-injection time 60 min): 0.0%
2 | 3.84 ± 0.07 | 87.9 | 46.7 | 91.1 | 73.7 | 0.0 | 65.7 | 20.9 | 85.3 | 40.4 | 0.0 | 49.2 | 16.8 | 82.2 | 34.1 | 0.0 | 29.8 | 17.4 | 21.7 | 13.9 | [18F]CCOc1ccc(COc2ccc(I)cc2)cc1 [[^18F]12a] | Percentage of Parent tracer, Urine ([2]; post-injection time 60 min): 0.0%
3 | 3.96 ± 0.22 | 95.9 | 22.9 | 35.2 | 85.2 | 0.0 | 86.0 | 58.8 | 13.5 | 41.3 | 2.6 | 79.4 | 2.0 | 8.8 | 22.1 | 0.0 | 72.1 | 0.0 | 3.3 | 12.3 | FCCOc1ccc(OCc2ccc([125I])cc2)cc1 [[^125I]7a] | Percentage of Parent tracer, Urine ([2]; post-injection time 60 min): 0.0%
